Data from PubChem BioAssay AID1963962 (Molecular Pharmacology Branch, DTP, NCI, 2024).

System: 967376-340-R-J2-PDC multicell spheroid viability
Test: Anticancer human tumor 967376-340-R-J2-PDC patient-derived colon adenocarcinoma cell line growth inhibition [PI3K]
Details: for IC50: curve of first compound; for viability, T/C: stronger effect = lower value
How it was run: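 Tumor cells were combined with HUVEC and MSCs into spheroids, then dosed with PI3K-inhibitor combinations over half-log ranges capped near clinical Cmax or 10 microM.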

[1] = second compound 0.00316 µM, first compound 0.000316 µM
[2] = second compound 0.00316 µM, first compound 0.001 µM
[3] = second compound 0.00316 µM, first compound 0.00316 µM
[4] = second compound 0.00316 µM, first compound 0.01 µM
[5] = second compound 0.00316 µM, first compound 0.0316 µM
[6] = second compound 0.00316 µM, first compound 0.1 µM
[7] = second compound 0.01 µM, first compound 0.000316 µM
[8] = second compound 0.01 µM, first compound 0.001 µM
[9] = second compound 0.01 µM, first compound 0.00316 µM
[10] = second compound 0.01 µM, first compound 0.01 µM
[11] = second compound 0.01 µM, first compound 0.0316 µM
[12] = second compound 0.01 µM, first compound 0.1 µM
[13] = second compound 0.0316 µM, first compound 0.000316 µM
[14] = second compound 0.0316 µM, first compound 0.001 µM
[15] = second compound 0.0316 µM, first compound 0.00316 µM
[16] = second compound 0.0316 µM, first compound 0.01 µM
[17] = second compound 0.0316 µM, first compound 0.0316 µM
[18] = second compound 0.0316 µM, first compound 0.1 µM
[19] = second compound 0.1 µM, first compound 0.000316 µM
[20] = second compound 0.1 µM, first compound 0.001 µM
[21] = second compound 0.1 µM, first compound 0.00316 µM
[22] = second compound 0.1 µM, first compound 0.01 µM
[23] = second compound 0.1 µM, first compound 0.0316 µM
[24] = second compound 0.1 µM, first compound 0.1 µM
[25] = second compound 0.316 µM, first compound 0.000316 µM
[26] = second compound 0.316 µM, first compound 0.001 µM
[27] = second compound 0.316 µM, first compound 0.00316 µM
[28] = second compound 0.316 µM, first compound 0.01 µM
[29] = second compound 0.316 µM, first compound 0.0316 µM
[30] = second compound 0.316 µM, first compound 0.1 µM
[31] = second compound 1 µM, first compound 0.000316 µM
[32] = second compound 1 µM, first compound 0.001 µM
[33] = second compound 1 µM, first compound 0.00316 µM
[34] = second compound 1 µM, first compound 0.01 µM
[35] = second compound 1 µM, first compound 0.0316 µM
[36] = second compound 1 µM, first compound 0.1 µM
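Also: spheroids exposed to agents for 7 days before read-out.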
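For viability, T/C in this document: luminescence used as surrogate of cell viability.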

CC(=O)c1c(C)c2cnc(Nc3ccc(N4CCNCC4)cn3)nc2n(C2CCCC2)c1=O + COc1c(OCCCN2CCOCC2)ccc2c3n(c(=NC(=O)c4cnc(N)nc4)nc12)CCN3
IC50 (second compound 0.00316 µM): > 100 nM | IC50 (second compound 0.01 µM): > 100 nM | IC50 (second compound 0.0316 µM): > 100 nM | IC50 (second compound 0.1 µM): > 100 nM | IC50 (second compound 0.316 µM): < 0.316 nM | IC50 (second compound 1 µM): < 0.316 nM | viability, T/C [1]: 92.9% | viability, T/C [2]: 95.8% | viability, T/C [3]: 94.7% | viability, T/C [4]: 88.5% | viability, T/C [5]: 87.5% | viability, T/C [6]: 74.7% | viability, T/C [7]: 89.8% | viability, T/C [8]: 99.5% | viability, T/C [9]: 92.2% | viability, T/C [10]: 101% | viability, T/C [11]: 78% | viability, T/C [12]: 60.9% | viability, T/C [13]: 72.4% | viability, T/C [14]: 79.9% | viability, T/C [15]: 73.2% | viability, T/C [16]: 73.8% | viability, T/C [17]: 86.3% | viability, T/C [18]: 74.3% | viability, T/C [19]: 64.2% | viability, T/C [20]: 49.7% | viability, T/C [21]: 64.5% | viability, T/C [22]: 59.3% | viability, T/C [23]: 62.1% | viability, T/C [24]: 54.6% | viability, T/C [25]: 46.7% | viability, T/C [26]: 39% | viability, T/C [27]: 37% | viability, T/C [28]: 42.2% | viability, T/C [29]: 45.5% | viability, T/C [30]: 44.7% | viability, T/C [31]: 41.5% | viability, T/C [32]: 37.3% | viability, T/C [33]: 34.8% | viability, T/C [34]: 33.5% | viability, T/C [35]: 34.3% | viability, T/C [36]: 27.9%

CC(C)n1nc(-c2ccc3oc(N)nc3c2)c2c(N)ncnc21 + COc1c(OCCCN2CCOCC2)ccc2c3n(c(=NC(=O)c4cnc(N)nc4)nc12)CCN3
IC50 (second compound 0.00316 µM): > 100 nM | IC50 (second compound 0.01 µM): 98.1 nM | IC50 (second compound 0.0316 µM): 32.9 nM | IC50 (second compound 0.1 µM): 17.7 nM | IC50 (second compound 0.316 µM): 0.541 nM | IC50 (second compound 1 µM): < 0.316 nM | viability, T/C [1]: 85.7% | viability, T/C [2]: 106% | viability, T/C [3]: 88.7% | viability, T/C [4]: 74.1% | viability, T/C [5]: 76.5% | viability, T/C [6]: 54.8% | viability, T/C [7]: 109% | viability, T/C [8]: 97.2% | viability, T/C [9]: 81% | viability, T/C [10]: 91.1% | viability, T/C [11]: 67.3% | viability, T/C [12]: 47.1% | viability, T/C [13]: 85.9% | viability, T/C [14]: 83.9% | viability, T/C [15]: 65.4% | viability, T/C [16]: 63.8% | viability, T/C [17]: 50% | viability, T/C [18]: 39.9% | viability, T/C [19]: 58% | viability, T/C [20]: 49.5% | viability, T/C [21]: 53.9% | viability, T/C [22]: 51.5% | viability, T/C [23]: 47.9% | viability, T/C [24]: 27% | viability, T/C [25]: 61.5% | viability, T/C [26]: 36.3% | viability, T/C [27]: 38% | viability, T/C [28]: 41.4% | viability, T/C [29]: 37.2% | viability, T/C [30]: 21.9% | viability, T/C [31]: 34.9% | viability, T/C [32]: 28.2% | viability, T/C [33]: 32.1% | viability, T/C [34]: 29.8% | viability, T/C [35]: 31.6% | viability, T/C [36]: 26.5%

CCCS(=O)(=O)Nc1ccc(F)c(C(=O)c2c[nH]c3ncc(-c4ccc(Cl)cc4)cc23)c1F + COc1c(OCCCN2CCOCC2)ccc2c3n(c(=NC(=O)c4cnc(N)nc4)nc12)CCN3
IC50 (second compound 0.00316 µM): > 10000 nM | IC50 (second compound 0.01 µM): > 10000 nM | IC50 (second compound 0.0316 µM): > 10000 nM | IC50 (second compound 0.1 µM): > 10000 nM | IC50 (second compound 0.316 µM): < 31.6 nM | IC50 (second compound 1 µM): < 31.6 nM | viability, T/C [5]: 94.8% | viability, T/C [6]: 94.7% | viability, T/C (second compound 0.00316 µM, first compound 0.316 µM): 82.8% | viability, T/C (second compound 0.00316 µM, first compound 1 µM): 101% | viability, T/C (second compound 0.00316 µM, first compound 3.16 µM): 74.3% | viability, T/C (second compound 0.00316 µM, first compound 10 µM): 59.6% | viability, T/C [11]: 104% | viability, T/C [12]: 78.9% | viability, T/C (second compound 0.01 µM, first compound 0.316 µM): 81.8% | viability, T/C (second compound 0.01 µM, first compound 1 µM): 73.6% | viability, T/C (second compound 0.01 µM, first compound 3.16 µM): 90% | viability, T/C (second compound 0.01 µM, first compound 10 µM): 61.8% | viability, T/C [17]: 68.1% | viability, T/C [18]: 63.4% | viability, T/C (second compound 0.0316 µM, first compound 0.316 µM): 73.8% | viability, T/C (second compound 0.0316 µM, first compound 1 µM): 79% | viability, T/C (second compound 0.0316 µM, first compound 3.16 µM): 69.7% | viability, T/C (second compound 0.0316 µM, first compound 10 µM): 69.1% | viability, T/C [23]: 63.2% | viability, T/C [24]: 58.5% | viability, T/C (second compound 0.1 µM, first compound 0.316 µM): 77% | viability, T/C (second compound 0.1 µM, first compound 1 µM): 51.1% | viability, T/C (second compound 0.1 µM, first compound 3.16 µM): 63% | viability, T/C (second compound 0.1 µM, first compound 10 µM): 54% | viability, T/C [29]: 39.4% | viability, T/C [30]: 36.5% | viability, T/C (second compound 0.316 µM, first compound 0.316 µM): 57.1% | viability, T/C (second compound 0.316 µM, first compound 1 µM): 34.6% | viability, T/C (second compound 0.316 µM, first compound 3.16 µM): 68.1% | viability, T/C (second compound 0.316 µM, first compound 10 µM): 58.8% | viability, T/C [35]: 31.6% | viability, T/C [36]: 41.6% | viability, T/C (second compound 1 µM, first compound 0.316 µM): 25.8% | viability, T/C (second compound 1 µM, first compound 1 µM): 46.1% | viability, T/C (second compound 1 µM, first compound 3.16 µM): 41% | viability, T/C (second compound 1 µM, first compound 10 µM): 34.8%
